Measurements taken from ChEMBL document CHEMBL1127010, “Synthesis of 3-acetoxy-12-epoxy-25-hydroxy-cholesta-5,7-diene and 2-25-dihydroxyvitamin D3” (1993).

Test system: HL-60
Assay: Concentration required for induction of HL-60 cell differentiation (ATCC cells) to 50% was determined
Type: functional, Homo sapiens

- EC50: 0.6 µM
Compound: C=C1C[C@H](O)[C@H](O)C/C1=C/C=C1\CCCC2(C)C1CCC2[C@H](C)CCCC(C)(C)O (stereo partly specified)
